In ChEMBL document CHEMBL1649467, “Impact of human serum albumin on oritavancin in vitro activity against enterococci” (Antimicrob Agents Chemother, 2009):
In brackets after ≈: the same amount, converted by molar mass.

What was measured:
[1] = Cmax in healthy human male at 200 mg, iv every 24 hrs by LC/MS/MS analysis; format: ADME, organism-based; design: dose 200 mg, route intravenous; conditions: in vivo
[2] = test system: Enterococcus faecalis; experiment: Antimicrobial activity against vancomycin-susceptible Enterococcus faecalis ATCC 29212 by broth dilution method; format: functional
[3] = test system: Enterococcus faecium; experiment: Antimicrobial activity against vancomycin-resistant Enterococcus faecium ATCC 51559 by broth dilution method; format: functional
[4] = test system: Enterococcus faecalis; experiment: Antimicrobial activity against vancomycin-resistant Enterococcus faecalis ATCC 51299 by broth dilution method; format: functional
[5] = test system: Enterococcus faecalis; experiment: Antimicrobial activity against vancomycin-resistant Enterococcus faecalis 1058946 by broth dilution method; format: functional
[6] = test system: Enterococcus faecium; experiment: Antimicrobial activity against vancomycin-resistant Enterococcus faecium 1119175 by broth dilution method; format: functional
[7] = test system: Enterococcus faecium; experiment: Antimicrobial activity against vancomycin-resistant Enterococcus faecium 1059060 by broth dilution method; format: functional
[8] = test system: Enterococcus faecalis; experiment: Antimicrobial activity against vancomycin-susceptible Enterococcus faecalis ATCC 29212 by broth dilution method in presence of 4% HSA; format: functional
[9] = test system: Enterococcus faecium; experiment: Antimicrobial activity against vancomycin-resistant Enterococcus faecium ATCC 51559 by broth dilution method in presence of 4% HAS; format: functional
[10] = test system: Enterococcus faecalis; experiment: Antimicrobial activity against vancomycin-resistant Enterococcus faecalis ATCC 51299 by broth dilution method in presence of 4% HSA; format: functional
[11] = test system: Enterococcus faecalis; experiment: Antimicrobial activity against vancomycin-resistant Enterococcus faecalis 1058946 by broth dilution method in presence of 4% HSA; format: functional
[12] = test system: Enterococcus faecium; experiment: Antimicrobial activity against vancomycin-resistant Enterococcus faecium 1119175 by broth dilution method in presence of 4% HSA; format: functional
[13] = test system: Enterococcus faecium; experiment: Antimicrobial activity against vancomycin-resistant Enterococcus faecium 1059060 by broth dilution method in presence of 4% HSA; format: functional
[14] = test system: Enterococcus faecalis; experiment: Selectivity ratio of MIC for Enterococcus faecalis ATCC 29212 in presence of 4% HSA to MIC for Enterococcus faecalis ATCC 29212; format: functional
[15] = test system: Enterococcus faecium; experiment: Selectivity ratio of MIC for Enterococcus faecium ATCC 51559 in presence of 4% HSA to MIC for Enterococcus faecium ATCC 51559; format: functional
[16] = test system: Enterococcus faecalis; experiment: Selectivity ratio of MIC for Enterococcus faecalis ATCC 51299 in presence of 4% HSA to MIC for Enterococcus faecalis 51299; format: functional
[17] = test system: Enterococcus faecalis; experiment: Selectivity ratio of MIC for Enterococcus faecalis 1058946 in presence of 4% HSA to MIC for Enterococcus faecalis 1058946; format: functional
[18] = test system: Enterococcus faecium; experiment: Selectivity ratio of MIC for Enterococcus faecium 1059060 in presence of 4% HSA to MIC for Enterococcus faecium 1059060; format: functional
[19] = Free fraction in healthy human male at 200 mg, iv every 24 hrs by LC/MS/MS analysis; format: ADME, organism-based; conditions: in vivo
[20] = test system: Enterococcus faecalis; experiment: Bactericidal activity against vancomycin-susceptible Enterococcus faecalis ATCC 29212 assessed as change in bacterial count at 32 ug/ml by time-kill assay; format: functional
[21] = test system: Enterococcus faecium; experiment: Bactericidal activity against vancomycin-resistant Enterococcus faecium ATCC 51559 expressing vanA gene assessed as change in bacterial count at 32 ug/ml by time-kill assay; format: functional
[22] = test system: Enterococcus faecalis; experiment: Bactericidal activity against vancomycin-resistant Enterococcus faecalis ATCC 51299 expressing vanB gene assessed as change in bacterial count at 32 ug/ml by time-kill assay; format: functional
[23] = test system: Enterococcus faecalis; experiment: Bactericidal activity against vancomycin-resistant Enterococcus faecalis 1058946 expressing vanA gene assessed as change in bacterial count at 32 ug/ml by time-kill assay; format: functional
[24] = test system: Enterococcus faecium; experiment: Bactericidal activity against vancomycin-resistant Enterococcus faecium 1119175 expressing vanB gene assessed as change in bacterial count at 32 ug/ml by time-kill assay; format: functional
[25] = test system: Enterococcus faecium; experiment: Bactericidal activity against vancomycin-resistant Enterococcus faecium 1059060 expressing vanA gene assessed as change in bacterial count at 32 ug/ml by time-kill assay; format: functional
[26] = test system: Enterococcus faecalis; experiment: Bactericidal activity against vancomycin-susceptible Enterococcus faecalis ATCC 29212 assessed as change in bacterial count at 2 ug/ml by time-kill assay; format: functional
[27] = test system: Enterococcus faecium; experiment: Bactericidal activity against vancomycin-resistant Enterococcus faecium ATCC 51559 expressing vanA gene assessed as change in bacterial count at 2 ug/ml by time-kill assay; format: functional
[28] = test system: Enterococcus faecalis; experiment: Bactericidal activity against vancomycin-resistant Enterococcus faecalis ATCC 51299 expressing vanB gene assessed as change in bacterial count at 2 ug/ml by time-kill assay; format: functional
[29] = test system: Enterococcus faecalis; experiment: Bactericidal activity against vancomycin-resistant Enterococcus faecalis 1058946 expressing vanA gene assessed as change in bacterial count at 2 ug/ml by time-kill assay; format: functional
[30] = test system: Enterococcus faecium; experiment: Bactericidal activity against vancomycin-resistant Enterococcus faecium 1119175 expressing vanB gene assessed as change in bacterial count at 2 ug/ml by time-kill assay; format: functional
[31] = test system: Enterococcus faecium; experiment: Bactericidal activity against vancomycin-resistant Enterococcus faecium 1059060 expressing vanA gene assessed as change in bacterial count at 2 ug/ml by time-kill assay; format: functional
[32] = Cmax in healthy human male at 1000 mg, iv every 12 hrs by LC/MS/MS analysis; format: ADME, organism-based; design: dose 1000 mg, route intravenous; conditions: in vivo
[33] = Free fraction in healthy human male at 1000 mg, iv every 12 hrs by LC/MS/MS analysis; format: ADME, organism-based; conditions: in vivo
[34] = test system: Enterococcus faecalis; experiment: Bactericidal activity against vancomycin-susceptible Enterococcus faecalis ATCC 29212 assessed as change in bacterial count at 64 ug/ml by time-kill assay; format: functional
[35] = test system: Enterococcus faecium; experiment: Bactericidal activity against vancomycin-resistant Enterococcus faecium ATCC 51559 expressing vanA gene assessed as change in bacterial count at 64 ug/ml by time-kill assay; format: functional
[36] = test system: Enterococcus faecalis; experiment: Bactericidal activity against vancomycin-resistant Enterococcus faecalis ATCC 51299 expressing vanB gene assessed as change in bacterial count at 64 ug/ml by time-kill assay; format: functional
[37] = test system: Enterococcus faecalis; experiment: Bactericidal activity against vancomycin-resistant Enterococcus faecalis 1058946 expressing vanA gene assessed as change in bacterial count at 64 ug/ml by time-kill assay; format: functional
[38] = test system: Enterococcus faecium; experiment: Bactericidal activity against vancomycin-resistant Enterococcus faecium 1119175 expressing vanB gene assessed as change in bacterial count at 64 ug/ml by time-kill assay; format: functional
[39] = test system: Enterococcus faecium; experiment: Bactericidal activity against vancomycin-resistant Enterococcus faecium 1059060 expressing vanA gene assessed as change in bacterial count at 64 ug/ml by time-kill assay; format: functional
[40] = test system: Enterococcus faecalis; experiment: Bactericidal activity against vancomycin-susceptible Enterococcus faecalis ATCC 29212 assessed as change in bacterial count at 16 ug/ml by time-kill assay; format: functional
[41] = test system: Enterococcus faecium; experiment: Bactericidal activity against vancomycin-resistant Enterococcus faecium ATCC 51559 expressing vanA gene assessed as change in bacterial count at 16 ug/ml by time-kill assay; format: functional
[42] = test system: Enterococcus faecalis; experiment: Bactericidal activity against vancomycin-resistant Enterococcus faecalis ATCC 51299 expressing vanB gene assessed as change in bacterial count at 16 ug/ml by time-kill assay; format: functional
[43] = test system: Enterococcus faecalis; experiment: Bactericidal activity against vancomycin-resistant Enterococcus faecalis 1058946 expressing vanA gene assessed as change in bacterial count at 16 ug/ml by time-kill assay; format: functional
[44] = test system: Enterococcus faecium; experiment: Bactericidal activity against vancomycin-resistant Enterococcus faecium 1119175 expressing vanB gene assessed as change in bacterial count at 16 ug/ml by time-kill assay; format: functional
[45] = test system: Enterococcus faecium; experiment: Bactericidal activity against vancomycin-resistant Enterococcus faecium 1059060 expressing vanA gene assessed as change in bacterial count at 16 ug/ml by time-kill assay; format: functional

CN[C@H](CC(C)C)C(=O)N[C@H]1C(=O)N[C@@H](CC(N)=O)C(=O)N[C@H]2C(=O)N[C@H]3C(=O)N[C@H](C(=O)N[C@H](C(=O)O)c4cc(O)cc(O)c4-c4cc3ccc4O)[C@H](O[C@H]3C[C@](C)(N)[C@@H](O)[C@H](C)O3)c3ccc(c(Cl)c3)Oc3cc2cc(c3O[C@@H]2O[C@H](CO)[C@@H](O)[C@H](O)[C@H]2O[C@H]2C[C@](C)(NCc3ccc(-c4ccc(Cl)cc4)cc3)[C@@H](O)[C@H](C)O2)Oc2ccc(cc2Cl)[C@H]1O [ORITAVANCIN]
Cmax [1]: 32000 ng/mL
MIC [2]: 0.008 µg/mL (≈ 0.00446 µM)
MIC [3]: 0.25 µg/mL (≈ 0.139 µM)
MIC [4]: 0.008 µg/mL (≈ 0.00446 µM)
MIC [5]: 0.5 µg/mL (≈ 0.279 µM)
MIC [6]: 0.016 µg/mL (≈ 0.00892 µM)
MIC [7]: 0.5 µg/mL (≈ 0.279 µM)
MIC [8]: 0.016 µg/mL
MIC [9]: 0.5 µg/mL
MIC [10]: 0.06 µg/mL
MIC [11]: 2 µg/mL
MIC [12]: 0.01 µg/mL
MIC [13]: 4 µg/mL
Ratio [14]: 2
Ratio [15]: 2
Ratio [16]: 8
Ratio [17]: 4
Ratio [18]: 8
fraction unbound at 24 h [19]: 0.12
log10CFU/ml [20]: -3.3
log10CFU/ml [21]: -1.2
log10CFU/ml [22]: -1.6
log10CFU/ml [23]: -1.2
log10CFU/ml [24]: -1.4
log10CFU/ml [25]: -0.85
log10CFU/ml [26]: -0.48
log10CFU/ml [27]: 1.1
log10CFU/ml [28]: -1.2
log10CFU/ml [29]: 1.4
log10CFU/ml [30]: 1.5
log10CFU/ml [31]: 1

CN[C@H](CC(C)C)C(=O)N[C@H]1C(=O)N[C@@H](CC(N)=O)C(=O)N[C@H]2C(=O)N[C@H]3C(=O)N[C@H](C(=O)N[C@H](C(=O)O)c4cc(O)cc(O)c4-c4cc3ccc4O)[C@H](O)c3ccc(c(Cl)c3)Oc3cc2cc(c3O[C@@H]2O[C@H](CO)[C@@H](O)[C@H](O)[C@H]2O[C@H]2C[C@](C)(N)[C@H](O)[C@H](C)O2)Oc2ccc(cc2Cl)[C@H]1O [VANCOMYCIN]
Cmax [32]: 64 µg/mL
MIC [2]: 2 µg/mL (≈ 1.38 µM)
MIC [3]: > 128 µg/mL
MIC [4]: 128 µg/mL (≈ 88.3 µM)
MIC [5]: > 128 µg/mL
MIC [6]: > 128 µg/mL
MIC [7]: > 128 µg/mL
MIC [8]: 2 µg/mL
MIC [9]: > 128 µg/mL
MIC [10]: 128 µg/mL
MIC [11]: > 128 µg/mL
MIC [12]: > 128 µg/mL
MIC [13]: > 128 µg/mL
fraction unbound at 12 h [33]: 0.54
log10CFU/ml [34]: -0.76
log10CFU/ml [35]: 2.2
log10CFU/ml [36]: 0.85
log10CFU/ml [37]: 2.3
log10CFU/ml [38]: 1.2
log10CFU/ml [39]: 2.2
log10CFU/ml [40]: -1.7
log10CFU/ml [41]: 2.6
log10CFU/ml [42]: 2.3
log10CFU/ml [43]: 2.5
log10CFU/ml [44]: 1.1
log10CFU/ml [45]: 2.3
